# Results as given in PMC6091370, “Preclinical Evaluation of [^18F]LCATD as a PET Tracer to Study Drug-Drug Interactions Caused by Inhibition of Hepatic Transporters” (Contrast Media & Molecular Imaging, 2018).
# “And” between values parts separate entries of the source, which are not always exact repeats. Equal values may be shown once.
# How the values were obtained:
# [1] = tested on: OATP1B1; parameters: method as in PMID 28011201; conditions: in vitro; cited from earlier work
# [2] = tested on: OATP1B3; parameters: method as in PMID 28011201; conditions: in vitro; cited from earlier work
# [3] = Postmortem metabolites analysis by radio-HPLC; assay type: in vivo, rat; conditions: 50 min postinjection
# Experimental: Analysis of metabolites in the blood, liver, and bile (extracted from the intestine) was performed via radio-HPLC. Blood samples, collected by cardiac puncture at the end of the PET-CT scan, were treated with an equal volume of acetonitrile, centrifuged for 1 minute at 1000 rpm and the supernatant was injected in radio-HPLC (Shimadzu Prominence HPLC system equipped with a PDA UV detector and HERM LB500 activity detector and Phenomenex Luna C18 column, 5 μm, 100 Å, 250 × 4.6 mm, injection volume 20 µL, PBS/CH3CN 60 : 40, isocratic elution, flow: 1 mL·min^−1). Samples of the liver and duodenum were collected at the end of the PET-CT scan (after euthanasia) homogenated with methanol (80% in water, 5 mL per gram of biological sample) by means of a homogenizer and centrifuged for 1 minute at 1000 rpm and the supernatant was injected in radio-HPLC.
# [4] = parameters: method as in PMID 28011201; conditions: in vitro; cited from earlier work
# [5] = Dynamic PET/CT imaging of hepatic uptake and biliary excretion of [18F]LCATD in rats; assay type: in vivo, rat; conditions: for CLuptake,in vivo (in vivo hepatic uptake clearance): Patlak integration plot 0–3 min; for CLuptake,in vivo (in vivo hepatic uptake clearance) / t max (time to maximum peak concentration in liver) / AUCbile 0–10 min (radioactivity in the gastrointestinal tract) / AUCliver 0–5 min / AUCliver 0–30 min / CLint,bile (intrinsic biliary clearance of the radiotracer) / Kp liver 0−5 min (apparent liver-to-blood AUC0–5 min ratio) / Cmax,liver (maximum measured activity in the liver): n=3
# Experimental: PET scans were performed with a preclinical PET/CT SEDECAL ARGUS scanner (SEDECAL, Spain) housed in a temperature-controlled suite. The scanner has two 11.8 cm diameter rings of photoswitch detectors coupled to position-sensitive photomultiplier tubes, giving a 4.8 cm axial and 7.5 cm transaxial field of view (FOV). All animals were cannulated (Venisystem Butterfly, Abbott Ireland) in the tail vein for tracer injection under general anaesthesia with isoflurane (IsoFlo 100% w/w, Abbott Laboratories Ltd) 2.5% (2 L·min^−1 oxygen flow). Animals were divided into three groups: control group (administered with [ ^18 F]LCATD only, 3 animals), rifamycin SV-treated group (3 animals) and fusidate-treated group (3 animals). All the animals were scanned in supine position. At the start of the scan, [ ^18 F]LCATD (5–15 MBq per body) was injected as a single bolus into the tail vein. Administered radioactivity was measured as the net counts in the syringe before and after the injection with an ionization chamber (Capintec CRC-15PET; Ramsey, New Jersey). The mass amount of [ ^18 F]LCATD administered per animal was estimated to be between 0.2 and 1 nmol. For inhibition experiments, rifamycin SV was administrated 45 minutes before the start of the scan at a dose of 50mg·Kg^−1 (intraperitoneally) and at the time of the tracer injection at a dose of 12.5 mg·Kg^−1 (intravenously). For the in vivo assessment of the inhibitory effect of sodium fusidate on the hepatobiliary transport of the tracer, the drug was administrated at a dose of 20 mg·Kg^−1 (intraperitoneally) 30 minutes before the scan and at a dose of 10 mg·Kg^−1 (intravenously) after 15 minutes from the tracer injection. Emission scans in 3D list-mode were acquired for 30 minutes (with a FOV encompassing part of the thorax and the intestine) followed by a 5 minutes CT scan. PET acquisitions were obtained with an energy window set to 250–700 keV and corrections for dead-time, activity decay, attenuation, random, and scatter counts were applied (using the manufacturer' software). The dynamic images were obtained by sorting the list mode data into the following time frames: 6 × 10 s, 8 × 30 s, 10 × 60 s, and 3 × 300 s, and images were reconstructed with a FORE/2D-OSEM reconstruction algorithm (provided by the manufacturer). Sampling at shorter intervals during early time-points enabled us to detect rapid increments of tracer uptake in the liver and intestine. […] A 5-minute PET scan of the injection site at the end of the CT was obtained to ensure successful intravenous injection. Cross calibration between the ionization chamber and the PET scanner was carried out by using a cylindrical phantom made of Perspex with internal diameter of 43 mm and length of 37 mm. 10 to 20 minute PET scans of the phantom filled with an average of about 4.20 MBq of [ ^18 F]LCATD in 60 g of water were acquired (average dead-time value 4%).
# The registered PET and CT images were transferred from the scanner to a processing workstation, and subsequent analysis was carried out using Pmod (Pmod Technologies, CH) version 3.2. Regions of interest (ROIs) corresponding to abdominal aorta, liver, and gastrointestinal tract were defined via a combination of manual and threshold methods (Supplementary Figure 1 and movie) using PMOD software (PMOD Technologies). The stomach was included in the gastrointestinal ROI to include the amount of bile that might have refluxed from the duodenum into the stomach.
# Uptake hepatic clearance CLuptake,in vivo was calculated by integration plots obtained applying the Patlak method in Pmod (Pmod Technologies, CH) version 3.2, limiting the linear fit to the uptake phase (0–3 min).
# Intrinsic biliary clearance of the radiotracer CLint,bile was determined as proposed by Takashima et al. by quantification of the radiotracer in the liver and the intestine (as amount of radiotracer excreted into the bile).
# [6] = Postmortem biodistribution of the tracer (gamma counting, 50 min postinjection); assay type: in vivo, rat; conditions: for activity in the terminal blood sample versus control: p < 0.05
# Experimental: Samples of the liver, heart, and kidney were collected at the end of the PET-CT scan (after euthanasia) and homogenised with methanol (80% in water, 5 mL per gram of biological sample) by means of a homogenizer. Samples were stored in preweighed plastic vials. Terminal blood was collected by cardiac puncture just before euthanasia. The activity of the homogenates and blood samples was measured by means of a precalibrated gamma counter as soon as possible after the PET experiment.
# [7] = tested on: NTCP; parameters: method as in PMID 28011201; conditions: in vitro; cited from earlier work
# [8] = tested on: BSEP; parameters: method as in PMID 28011201; conditions: in vitro; cited from earlier work
# [9] = tested on: MRP2 transporter; parameters: method as in PMID 27676153; conditions: 0.3–300 µM, increased efflux of LTC4, MRP2 transfected membrane vesicles; cited from earlier work
# [10] = biological target: NTCP; conditions: cited from earlier work
# [11] = tested on: OATP1B1; conditions: cited from earlier work
# [12] = tested on: BSEP; conditions: read-out: IC50 for BSEP; cited from earlier work
# [13] = rifamycin SV-treated rats (total dose 62.5 mg·Kg^−1)
smiles,measurement,setting,value
"C[C@H](CCC(=O)NC(Cc1cn(CCCC[18F])nn1)C(=O)O)[C@H]1CC[C@H]2[C@@H]3CC[C@@H]4C[C@H](O)CC[C@]4(C)[C@H]3CC[C@]12C (some centres unmarked) [[ ^18 F]LCATD, LithoCholic Acid Triazole Derivative]",transport by uptake transporter OATP1B1,[1],substrate
same,transport by OATP1B3,[2],low affinity substrate
same,metabolic stability of the tracer,"[3]; in vivo, rat",at least 90%
same,share of activity in intestine extracts as twin peak matching [18F]LCATD,"[3]; radio-HPLC, intestine extracts of two control animals",over 90%
same,passive permeability,[4],low
same,activity in the liver 2 minutes after tracer injection,[5]; control rats,14.2 ± 0.8%
same,maximum activity recorded in the liver,[5]; control rats,14.2 ± 0.8 % of the injected dose
same,residual activity in the liver after 30 minutes,[5]; control rats,1.04 ± 0.17 % of the injected dose
same,"CLuptake,in vivo (in vivo hepatic uptake clearance)","[5]; control rats, image-derived blood input",2.09 ± 0.27 mL/min/g
same,t max (time to maximum peak concentration in liver),"[5]; control rats, [18F]LCATD only, iv bolus",2.25 min
same,AUCbile 0–10 min (radioactivity in the gastrointestinal tract),[5]; control rats,89 ± 1 % ID·min·mL^−1
same,AUCliver 0–5 min,[5]; control rats,58 ± 1 % ID·min·mL^−1
same,AUCliver 0–30 min,[5]; control rats,110 ± 15 % ID·min·mL^−1
same,"CLint,bile (intrinsic biliary clearance of the radiotracer)",[5]; control rats,0.17 ± 0.03 mL/min/g
same,Kp liver 0−5 min (apparent liver-to-blood AUC0–5 min ratio),[5]; control rats,3.64 ± 0.09
same,activity in the liver after 30 minutes,[5]; fusidate-treated rats,1.02 ± 0.02 % of the injected dose
same,t max (time to maximum peak concentration in liver),[5]; fusidate-treated rats (20 mg·Kg^−1 ip 30 min before scan + 10 mg·Kg^−1 iv 15 min after tracer injection),2.25 min
same,maximum activity recorded in the liver,[5]; fusidate-treated rats (30 mg·Kg^−1),11.5 ± 0.3 % of the injected dose
same,"CLuptake,in vivo (in vivo hepatic uptake clearance)",[5]; fusidate-treated rats,1.40 ± 0.13^∗ mL·min^−1·g^−1
same,AUCbile 0–10 min (radioactivity in the gastrointestinal tract),[5]; fusidate-treated rats,93 ± 19 % ID·min·mL^−1
same,AUCliver 0–5 min,[5]; fusidate-treated rats,48 ± 0.3^∗ % ID·min·mL^−1
same,AUCliver 0–30 min,[5]; fusidate-treated rats,89 ± 11 % ID·min·mL^−1
same,"CLint,bile (intrinsic biliary clearance of the radiotracer)",[5]; fusidate-treated rats,0.36 ± 0.03^∗ mL·min^−1·g^−1
same,"Cmax,liver (maximum measured activity in the liver)",[5]; fusidate-treated rats,11.5 ± 0.3^∗ % ID·mL^−1
same,Kp liver 0−5 min (apparent liver-to-blood AUC0–5 min ratio),[5]; fusidate-treated rats,2.451 ± 0.016
same,activity in the liver 2 minutes after tracer injection,[5]; rifamycin SV-treated rats,8.0 ± 0.6%
same,activity in the liver after 30 minutes,[5]; rifamycin SV-treated rats,1.87 ± 0.13 % of the injected dose
same,t max (time to maximum peak concentration in liver),[5]; rifamycin SV-treated rats (50 mg·Kg^−1 ip 45 min before scan + 12.5 mg·Kg^−1 iv at tracer injection),3.75 min
same,delay of t max relative to control rats,[5]; [13],1.5 min
same,maximum activity recorded in the liver,[5]; [13],10.2 ± 0.9 % of the injected dose and 10.2 ± 1.0 % of the injected dose
same,"CLuptake,in vivo (in vivo hepatic uptake clearance)",[5]; rifamycin SV-treated rats,0.71 ± 0.05^∗ mL·min^−1·g^−1
same,AUCbile 0–10 min (radioactivity in the gastrointestinal tract),[5]; rifamycin SV-treated rats,53 ± 3^∗ % ID·min·mL^−1
same,AUCliver 0–5 min,[5]; rifamycin SV-treated rats,44 ± 4^∗ % ID·min·mL^−1
same,AUCliver 0–30 min,[5]; rifamycin SV-treated rats,139 ± 9 % ID·min·mL^−1
same,"CLint,bile (intrinsic biliary clearance of the radiotracer)",[5]; rifamycin SV-treated rats,0.12 ± 0.03 mL/min/g
same,"Cmax,liver (maximum measured activity in the liver)",[5]; rifamycin SV-treated rats,10.2 ± 0.9^∗ % ID·mL^−1
same,Kp liver 0−5 min (apparent liver-to-blood AUC0–5 min ratio),[5]; rifamycin SV-treated rats,2.07 ± 0.17
same,activity in the liver 2 minutes after tracer injection,[5]; sodium fusidate-treated rats,11.4 ± 0.4%
same,activity in the terminal blood sample versus control,[6]; fusidate-treated rats,significantly increased
same,activity in the kidneys,[6]; postmortem,< 0.1 % of the injected dose
same,activity in the terminal blood sample versus control,[6]; rifamycin SV-treated rats,significantly increased
same,transport by uptake transporter NTCP,[7],substrate
same,transport by efflux transporter BSEP,[8],excreted into the bile via the efflux transporter BSEP
CC(=O)O[C@H]1C[C@@]2(C)[C@@H](C[C@@H](O)[C@H]3[C@@]4(C)CC[C@@H](O)[C@@H](C)[C@@H]4CC[C@@]32C)/C1=C(\CCC=C(C)C)C(=O)O [fusidic acid],effect on MRP2 transporter (canalicular efflux) in vitro,[9],stimulate
CO[C@H]1/C=C/O[C@@]2(C)Oc3c(C)c(O)c4c(O)c(cc(O)c4c3C2=O)NC(=O)/C(C)=C\C=C\[C@H](C)[C@H](O)[C@@H](C)[C@@H](O)[C@@H](C)[C@H](OC(C)=O)[C@@H]1C [rifamycin SV],Ki,[10]; read-out: K i for NTCP,> 63 µM
same,IC50,[11],0.2 to 0.4 µM
same,IC50,[12],6.3 µM
CC(=O)O[C@H]1C[C@@]2(C)[C@@H](C[C@@H](O)[C@H]3[C@@]4(C)CC[C@@H](O)[C@@H](C)[C@@H]4CC[C@@]32C)/C1=C(\CCC=C(C)C)C(=O)O [sodium fusidate],IC50,[10],44 µM
same,IC50,[11],1.6 to 35 µM
same,IC50,[12],3.8 to 11.5 µM
